Experimental data from patent publication US20240307310A1, “STABILIZED SOLID ORAL PHARMACEUTICAL COMPOSITION OF VARENICLINE” (LUPIN LIMITED, priority 2021, published 2024).

Experiments:
[1] = Regulatory acceptable intake (AI) limits for nitrosamine impurities; parameters: species or system human; conditions: determined in view of the EMA limit
Experimental: FDA recommends the following acceptable intake (Al) limits fir the nitrosamine impurities a s given in the below table:
The conversion of Al limit into ppm varies by product and is calculated based on a drug's maximum daily dose (MDD) as reflected in the drug label (ppm=Al (ng)/MDD(mg)).
These limits are applicable only if a drug product contains a single nitrosamine.
Apart from NDMA there is another nitrosamine impurity, N-nitroso-varenicline which is usually found in APIs as well as finished product of varenicline. As per the recent update, USFDA has provided acceptable intake limit of N-nitroso-varenicline (VC09) from 37 ng/day to 185 ng/day, in finished product of varenicline.
Additionally, European Medicines Agency (EMA) has also provided the daily acceptable intake limit for N-nitroso-varenicline impurity as 18 ng/day. In view of the above limit minimum daily intake limit for VC09 was determined as 9 ppm.

[2] = cited from earlier work; for AI Limit: FDA recommended acceptable intake limit in drug products
[3] = Analysis of nitrosamine impurities (VC09, NDEA) in drug substance, blends and tablets; assay type: physicochemical; conditions: Table 2

Compound	AI Limit [2]	further results
O=NN1CC2CC(C1)c1cc3nccnc3cc12 [N-nitroso-varenicline]	–	minimum daily intake limit [1]: 9 ppm; daily acceptable intake limit ([2]; European Medicines Agency (EMA)): 18 ng/day
CCN(CC)N=O [NDEA, N-nitrosodiethylamine]	26.5 ng/day	–
CC(C)N(N=O)C(C)C [NDIPA, N-nitrosodiisopropylamine]	26.5 ng/day	–
CN(C)N=O [NDMA, N-nitrosodimethylamine]	96 ng/day	–
CCN(N=O)C(C)C [NIPEA, N-nitrosoisopropylethyl amine]	26.5 ng/day	–
CN(CCCC(=O)O)N=O [NMBA, N-nitroso-N-methyl-4-aminobutanoic acid]	96 ng/day	–
Varenicline Tartrate [Drug Substance]	–	Nitrosamines Results in ppm, VC09 ([3]; 40/75, 7 days, open): 0.20 ppm; Nitrosamines Results in ppm, VC09 ([3]; 60° C, 7 days, open): 0.27 ppm; Nitrosamines Results in ppm, VC09 ([3]; Initial (Chantix tablets: condition not given)): 0.23 ppm
